Source: article PMC11062894, “Protein-based bandpass filters for controlling cellular signaling with chemical inputs” (Nature Chemical Biology, 2023)
Several values for one entry are separate records, joined by “and”; a condition that tells them apart may be missing. Equal entries are not always repeated.

Tested on: GEMS receptors with CBPvene (Bcl2–LD3 and Bcl2high variants), STAT3-driven SEAP in HEK293T cells
Experiment: GEMS SEAP reporter assay, CBPvene (Bcl2high, LD3-v and Bcl2-v variants) with venetoclax
Assay type: cell-based
[1] = CBPVene-v4-LD3v1, Venetoclax 10 nM
[2] = CBPVene-v4-LD3v1, Venetoclax 31.6 nM
[3] = CBPVene-v4-LD3v1, Venetoclax 100 nM
[4] = CBPVene-v4-LD3v1, Venetoclax 316 nM
[5] = CBPVene-v4-LD3v1, Venetoclax 1000 nM
[6] = CBPVene-v4-LD3v1, Venetoclax 3160 nM
[7] = CBPVene-v4-LD3v1, Venetoclax 10000 nM
[8] = CBPVene-v5, Venetoclax 10000 nM
[9] = CBPVene-v5-Bcl2v2, Venetoclax 1 nM
[10] = CBPVene-v5-Bcl2v2, Venetoclax 3.16 nM
[11] = CBPVene-v5-Bcl2v2, Venetoclax 10 nM
[12] = CBPVene-v5-Bcl2v2, Venetoclax 31.6 nM
[13] = CBPVene-v5-Bcl2v2, Venetoclax 316 nM

CC1(C)CCC(CN2CCN(c3ccc(C(=O)NS(=O)(=O)c4ccc(NCC5CCOCC5)c([N+](=O)[O-])c4)c(Oc4cnc5[nH]ccc5c4)c3)CC2)=C(c2ccc(Cl)cc2)C1 [Venetoclax]
Raw data Figure 5c [1]: 19.6376 and 23.1796 and 21.4266 | Raw data of Independent repeat of CBPVene-v4 vs CBPVene-v4-LD3v1 [1]: 12.5143 and 15.3613 and 14.2991 | Normalized data Figure 5c [2]: 33.2758 and 29.1991 and 22.5234 | Raw data Figure 5c [2]: 32.1154 and 36.1941 and 32.5835 | Raw data of Independent repeat of CBPVene-v4 vs CBPVene-v4-LD3v1 [2]: 19.3224 and 24.3766 and 24.2685 | Normalized data Figure 5c [3]: 89.5011 and 73.3407 and 58.8514 | Raw data Figure 5c [3]: 86.38 and 90.9103 and 85.1375 | Raw data of Independent repeat of CBPVene-v4 vs CBPVene-v4-LD3v1 [3]: 49.6855 and 59.8551 and 68.5591 | Normalized data Figure 5c [4]: 100 | Raw data Figure 5c [4]: 96.5128 and 123.956 and 144.665 | Raw data of Independent repeat of CBPVene-v4 vs CBPVene-v4-LD3v1 [4]: 75.2259 and 81.7396 and 83.8142 | Normalized data Figure 5c [5]: 92.1259 and 70.027 and 66.0891 | Raw data Figure 5c [5]: 88.9133 and 86.8028 and 95.608 | Raw data of Independent repeat of CBPVene-v4 vs CBPVene-v4-LD3v1 [5]: 55.2813 and 57.5308 and 55.9265 | Normalized data Figure 5c [6]: 41.115 and 38.8368 and 34.8585 | Raw data Figure 5c [6]: 39.6812 and 48.1406 and 50.4281 | Raw data of Independent repeat of CBPVene-v4 vs CBPVene-v4-LD3v1 [6]: 23.1338 and 27.3241 and 29.5684 | Normalized data Figure 5c [7]: 12.9494 and 11.4961 and 9.578 | Raw data Figure 5c [7]: 12.4978 and 14.2501 and 13.8554 | Raw data of Independent repeat of CBPVene-v4 vs CBPVene-v4-LD3v1 [7]: 8.884 and 10.4059 and 11.3993 | Raw data of Independent repeat of CBPVene-v5 vs CBPVene-v5-LD3v1 (CBPVene-v5, Venetoclax 0.01 nM): 29.6718 and 24.6839 and 26.501 | Normalized data Figure 5c (CBPVene-v5, Venetoclax 1 nM): 7.442 and 6.278 and 6.718 | Raw data Figure 5c (CBPVene-v5, Venetoclax 1 nM): 29.5956 and 26.0853 and 29.9849 | Normalized data Figure 5c (CBPVene-v5, Venetoclax 3.16 nM): 9.477 and 7.971 and 8.021 | Normalized data Figure 5f (CBPVene-v5, Venetoclax 3.16 nM): 5.255 and 4.508 and 3.901 | Raw data Figure 5c (CBPVene-v5, Venetoclax 3.16 nM): 37.6876 and 33.119 and 35.8015 | Raw data Figure 5f (CBPVene-v5, Venetoclax 3.16 nM): 30.3563 and 26.3908 and 26.6345 | Raw data of Independent repeat of CBPVene-v5 vs CBPVene-v5-LD3v1 (CBPVene-v5, Venetoclax 3.16 nM): 30.3563 and 26.3908 and 26.6345 | Normalized data Figure 5c (CBPVene-v5, Venetoclax 10 nM): 11.5779 and 11.0151 and 10.8723 | Normalized data Figure 5f (CBPVene-v5, Venetoclax 10 nM): 9.191 and 6.8128 and 6.589 | Raw data Figure 5c (CBPVene-v5, Venetoclax 10 nM): 46.0425 and 45.7651 and 48.5281 | Raw data Figure 5f (CBPVene-v5, Venetoclax 10 nM): 53.0904 and 39.8802 and 44.9895 | Raw data of Independent repeat of CBPVene-v5 vs CBPVene-v5-LD3v1 (CBPVene-v5, Venetoclax 10 nM): 53.0904 and 39.8802 and 44.9895 | Normalized data Figure 5c (CBPVene-v5, Venetoclax 31.6 nM): 35.6775 and 32.4284 and 35.7596 | Normalized data Figure 5f (CBPVene-v5, Venetoclax 31.6 nM): 4.7681 and 4.341 and 3.633 | Raw data Figure 5c (CBPVene-v5, Venetoclax 31.6 nM): 141.881 and 134.732 and 159.612 | Raw data Figure 5f (CBPVene-v5, Venetoclax 31.6 nM): 27.5418 and 25.4102 and 24.8086 | Raw data of Independent repeat of CBPVene-v5 vs CBPVene-v5-LD3v1 (CBPVene-v5, Venetoclax 31.6 nM): 27.5418 and 25.4102 and 24.8086 | Normalized data Figure 5c (CBPVene-v5, Venetoclax 100 nM): 85.9499 and 82.2485 and 75.1301 | Normalized data Figure 5f (CBPVene-v5, Venetoclax 100 nM): 23.389 and 18.2031 and 16.6277 | Raw data Figure 5c (CBPVene-v5, Venetoclax 100 nM): 341.802 | Raw data Figure 5f (CBPVene-v5, Venetoclax 100 nM): 135.101 | Raw data of Independent repeat of CBPVene-v5 vs CBPVene-v5-LD3v1 (CBPVene-v5, Venetoclax 100 nM): 135.101 and 106.556 and 113.538 | Normalized data Figure 5c (CBPVene-v5, Venetoclax 316 nM): 100 and 99.2625 | Normalized data Figure 5f (CBPVene-v5, Venetoclax 316 nM): 90.5991 and 73.5543 and 71.7832 | Raw data Figure 5c (CBPVene-v5, Venetoclax 316 nM): 397.676 and 415.475 and 443.055 | Raw data Figure 5f (CBPVene-v5, Venetoclax 316 nM): 523.324 and 430.565 and 490.151 | Raw data of Independent repeat of CBPVene-v5 vs CBPVene-v5-LD3v1 (CBPVene-v5, Venetoclax 316 nM): 523.324 and 430.565 and 490.151 | Normalized data Figure 5c (CBPVene-v5, Venetoclax 1000 nM): 94.7389 and 93.854 and 100 | Normalized data Figure 5f (CBPVene-v5, Venetoclax 1000 nM): 100 | Raw data Figure 5c (CBPVene-v5, Venetoclax 1000 nM): 376.754 and 389.94 and 446.347 | Raw data Figure 5f (CBPVene-v5, Venetoclax 1000 nM): 577.626 and 585.371 and 682.822 | Raw data of Independent repeat of CBPVene-v5 vs CBPVene-v5-LD3v1 (CBPVene-v5, Venetoclax 1000 nM): 585.371 and 682.822 | Normalized data Figure 5c (CBPVene-v5, Venetoclax 3160 nM): 78.0027 and 76.1858 and 76.8944 | Normalized data Figure 5f (CBPVene-v5, Venetoclax 3160 nM): 79.8503 and 79.8999 and 73.1753 | Raw data Figure 5c (CBPVene-v5, Venetoclax 3160 nM): 310.198 and 316.533 and 343.216 | Raw data Figure 5f (CBPVene-v5, Venetoclax 3160 nM): 461.236 and 467.711 and 499.656 | Raw data of Independent repeat of CBPVene-v5 vs CBPVene-v5-LD3v1 (CBPVene-v5, Venetoclax 3160 nM): 461.236 and 467.711 and 499.656 | Normalized data Figure 5c [8]: 34.0541 and 31.651 and 32.0007 | Normalized data Figure 5f [8]: 53.1633 and 46.1135 and 46.4962 | Raw data Figure 5c [8]: 135.425 and 131.502 and 142.834 | Raw data Figure 5f [8]: 307.085 and 269.935 and 317.486 | Normalized data Figure 5f [9]: 20.7725 and 19.0354 and 15.7869 | Raw data Figure 5f [9]: 37.9718 and 36.6065 and 35.2814 | Normalized data Figure 5f [10]: 20.3227 and 21.226 and 17.4104 | Raw data Figure 5f [10]: 37.1496 and 40.8191 and 38.9099 | Normalized data Figure 5f [11]: 19.4559 and 21.7686 and 18.6086 | Raw data Figure 5f [11]: 35.5651 and 41.8626 and 41.5876 | Normalized data Figure 5f [12]: 37.718 and 36.6086 and 30.2912 | Raw data Figure 5f [12]: 68.9479 and 70.401 and 67.6966 | Normalized data Figure 5f (CBPVene-v5-Bcl2v2, Venetoclax 100 nM): 81.9466 and 81.1265 and 85.7326 | Normalized data Figure 5f [13]: 100 | Raw data Figure 5f [13]: 182.798 and 192.307 and 223.486
